Tested on: Aβ 40 in conditioned media of cells stably expressing Amyloid Precursor Protein (APP)
Assay: BACE Cell-Based Assay (Aβ40 in conditioned medium, sandwich ELISA)
Conditions: 24 hours of incubation with the test compounds, Aβ 40 by sandwich ELISA, read-out: IC50 values in the cell-based assay (inhibition of Aβ 40)
Protocol: The cell-based assay measures inhibition or reduction of Aβ40 in conditioned medium of test compound treated cells, which express amyloid precursor protein.
Cells stably expressing Amyloid Precursor Protein (APP) were plated at a density of 40K cells/well in 96 well plates (Costar). The cells were cultivated for 24 h at 37° C. and 5% CO2 in DMEM supplemented with 10% FBS. The test compounds were then added to cells in 10-point dose response concentrations with the starting concentration being either 100 μM or 10 μM. The compounds were diluted from stock solutions in DMSO and the final DMSO concentration of the test compounds on cells was 0.1%. After 24 hours of incubation with the test compounds the supernatant conditioned media was collected and the Aβ 40 levels were determined using a sandwich ELISA. The IC50 of the compound was calculated from the percent of control or percent inhibition of Aβ 40 as a function of the concentration of the test compound.
The sandwich ELISA to detect Aβ 40 was performed in 96 well microtiter plates, which were pre-treated with goat anti-rabbit IgG (Pierce). The capture and detecting antibody pair that were used to detect Aβ 40 from cell supernatants were affinity purified pAb40 (Biosource) and biotinylated 6E10 (Signet Labs Inc.), respectively. The optimal concentration for the pAb40 antibody was 3 μg/ml in Superblock/TBS (Pierce) that was supplemented with 0.05% Tween 20 (Sigma). Optimal concentration for the detection antibody 6E10-biotinylated was […] in Superblock/TBS (Pierce) that had been supplemented with 2% normal goat serum and 2% normal mouse serum.
Cellular supernatants were incubated with the capture antibody for 3 h at 4° C., followed by 3 wash steps in TBS-tween (0.05%). The detecting antibody incubation was for 2 h at 4° C., again followed by the wash steps as described previously. The final readout of the ELISA is Time-Resolved Fluorescence (counts per minute) using Delfia reagents Streptavidin-Europium and Enhancement solutions (Perkin Elmer) and the Victor 2 multilabel counter (Perkin Elmer).

IC50 [µM] | SMILES
≤ 5 | CCc1ccc2c(c1)[C@@H](NC[C@@H](O)[C@H](Cc1ccccc1)NC(=O)[C@@H]1CN(C(C)=O)c3ccccc3O1)CC1(CCCC1)O2 [Example 51, (S)-4-acetyl-N-((2S,3R)-4-((S)-6-ethyl-2,2-spirocyclopentylchroman-4-ylamino)-3-hydroxy-1-phenylbutan-2-yl)-3,4-dihydro-2H-benzo[b][1,4]oxazine-2-carboxamide]
≤ 5 | CCc1ccc2c(c1)[C@@H](NC[C@@H](O)[C@H](Cc1ccccc1)NC(=O)[C@H]1CN(C(=O)OC(C)(C)C)c3ccccc3O1)CC1(CCCC1)O2 [Example 52, (R)-tert-Butyl 2-(((2S,3R)-4-((S)-6-ethyl-2,2-spirocyclopentylchroman-4-ylamino)-3-hydroxy-1-phenylbutan-2-yl)carbamoyl)-2,3-dihydrobenzo[b][1,4]oxazine-4-carboxylate]
≤ 5 | CCc1ccc2c(c1)[C@@H](NC[C@@H](O)[C@H](Cc1ccccc1)NC(=O)c1cc(N3CCCC3=O)c(=O)n(C3CCCC3)c1)CC1(CCCC1)O2 [Example 105]
≤ 5 | CCc1ccc2c(c1)[C@@H](NC[C@@H](O)[C@H](Cc1ccccc1)NC(=O)c1cc(-c3ccccc3F)c(=O)n3c1CCC3)CC1(CCCC1)O2 [Example 107, N-((2S,3R)-4-((8)-6-Ethyl-2,2-spirocyclopentylchroman-4-ylamino)3-hydroxy-1-phenylbutan-2-yl)-6-(2-fluorophenyl)-5-oxo-1,2,3,5-tetrahydroindolizine-8-carboxamide]
≤ 5 | CCc1ccc2c(c1)[C@@H](NC[C@@H](O)[C@H](Cc1ccccc1)NC(=O)c1cc(-c3cccc(F)c3)c(=O)n3c1CCC3)CC1(CCCC1)O2 [Example 108, N-((2S,3R)-4-((8)-6-Ethyl-2,2-spirocyclopentylchroman-4-ylamino)3-hydroxy-1-phenylbutan-2-yl)-6-(3-fluorophenyl)-5-oxo-1,2,3,5-tetrahydroindolizine-8-carboxamide]
≤ 5 | O=C(N[C@@H](Cc1ccccc1)[C@H](O)CN[C@H]1CC2(CCCC2)Oc2ccc(F)cc21)c1cc(N2CCCC2=O)c(=O)n(C2CCCC2)c1 [Example 110]
≤ 5 | O=C(N[C@@H](Cc1ccccc1)[C@H](O)CN[C@H]1CC2(CCCC2)Oc2c(F)cc(F)cc21)c1cc(N2CCCC2=O)c(=O)n(C2CCCC2)c1 [Example 111]
≤ 5 | CCc1ccc2c(c1)[C@@H](NC[C@@H](O)[C@H](Cc1ccccc1)NC(=O)c1cc(N3CCCC3=O)c(=O)n(C3CCCC3)c1)CC1(CCC1)O2 [Example 116]
≤ 5 | CCc1ccc2c(c1)[C@@H](NC[C@@H](O)[C@H](Cc1ccccc1)NC(=O)c1ccc(=O)n(C3CCCC3)c1)CC1(CCC1)O2 [Example 117]
≤ 5 | CCc1ccc2c(c1)[C@@H](NC[C@@H](O)[C@H](Cc1ccccc1)NC(=O)c1ccc(=O)n(CC(C)C)c1)CC1(CCC1)O2 [Example 118]
≤ 5 | CCc1ccc2c(c1)[C@@H](NC[C@@H](O)[C@H](Cc1ccccc1)NC(=O)c1ccc(=O)n(CC(F)(F)F)c1)CC1(CCC1)O2 [Example 119]
≤ 5 | CCc1ccc2c(c1)[C@@H](NC[C@@H](O)[C@H](Cc1ccccc1)NC(=O)c1ccc(=O)n(-c3ccccc3)c1)CC1(CCC1)O2 [Example 120]
≤ 5 | O=C(N[C@@H](Cc1ccccc1)[C@H](O)CN[C@H]1CC2(CCCC2)Oc2ccc(Br)cc21)c1cc(N2CCCC2=O)c(=O)n(C2CCCC2)c1 [Example 121]
≤ 5 | O=C(N[C@@H](Cc1ccccc1)[C@H](O)CN[C@H]1CC2(CCCC2)Oc2ccc(Br)cc21)c1ccc(=O)n(C2CCCC2)c1 [Example 122]
≤ 5 | CC(C)Cn1cc(C(=O)N[C@@H](Cc2ccccc2)[C@H](O)CN[C@H]2CC3(CCCC3)Oc3ccc(Br)cc32)ccc1=O [Example 123]
≤ 5 | CC(C)(C)Cc1ccc2c(c1)[C@@H](NC[C@@H](O)[C@H](Cc1ccccc1)NC(=O)c1cc(N3CCCC3=O)c(=O)n(C3CCCC3)c1)CC1(CCCC1)O2 [Example 124]
≤ 5 | CC(C)(C)Cc1ccc2c(c1)[C@@H](NC[C@@H](O)[C@H](Cc1ccccc1)NC(=O)c1ccc(=O)n(C3CCCC3)c1)CC1(CCCC1)O2 [Example 125]
